Results: publication PMC11428108 (Frontiers in Molecular Neuroscience, 2024)
Structures can show the parent of a compound that is named as a salt.

What was measured:
α4β2* nAChRs = tested on: α4β2* nAChRs; design: method as in earlier work; conditions: agonist-induced signaling; ref Wang et al., 2015; Grupe et al., 2013; Appiani et al., 2024; Jin et al., 2014; read-out: EC50 on α4β2* nAChR signaling; cited from earlier work
rats = tested on: rats; design: method as in Maurer et al., 2017; conditions: ref Maurer et al., 2017; cited from earlier work
people = tested on: people; design: method as in Knight et al., 2009; conditions: placebo approximately 9%; ref Knight et al., 2009; cited from earlier work
[1] = molecular target: human (α4)2(β2)2β2/α4 (α4β2*) nAChRs (Homo sapiens, UniProt P17787+P43681); experiment: FLEXstation membrane potential assay in HEK cells stably expressing α4β2* nAChRs; assay type: cell-based; conditions: nicotine 0.001–50 μM, ±SEM
Sequence of human (α4)2(β2)2β2/α4 (α4β2*) nAChRs (P43681 27-627): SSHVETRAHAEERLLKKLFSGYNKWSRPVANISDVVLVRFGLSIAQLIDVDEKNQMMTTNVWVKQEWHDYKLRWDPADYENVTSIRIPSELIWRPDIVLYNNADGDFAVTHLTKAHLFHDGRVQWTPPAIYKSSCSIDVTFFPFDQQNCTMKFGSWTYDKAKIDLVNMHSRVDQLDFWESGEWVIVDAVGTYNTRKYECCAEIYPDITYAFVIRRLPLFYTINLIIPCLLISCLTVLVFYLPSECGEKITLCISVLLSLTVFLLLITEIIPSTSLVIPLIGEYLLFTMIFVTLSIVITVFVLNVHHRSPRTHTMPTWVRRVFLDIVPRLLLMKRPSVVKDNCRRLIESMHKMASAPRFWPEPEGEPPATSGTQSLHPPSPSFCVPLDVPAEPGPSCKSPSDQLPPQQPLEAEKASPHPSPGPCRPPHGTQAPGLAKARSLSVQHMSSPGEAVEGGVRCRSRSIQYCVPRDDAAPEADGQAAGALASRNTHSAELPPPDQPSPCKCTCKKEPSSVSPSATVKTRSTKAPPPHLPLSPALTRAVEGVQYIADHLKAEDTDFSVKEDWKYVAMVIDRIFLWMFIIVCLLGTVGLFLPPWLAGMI
Sequence of human (α4)2(β2)2β2/α4 (α4β2*) nAChRs (P17787 26-502): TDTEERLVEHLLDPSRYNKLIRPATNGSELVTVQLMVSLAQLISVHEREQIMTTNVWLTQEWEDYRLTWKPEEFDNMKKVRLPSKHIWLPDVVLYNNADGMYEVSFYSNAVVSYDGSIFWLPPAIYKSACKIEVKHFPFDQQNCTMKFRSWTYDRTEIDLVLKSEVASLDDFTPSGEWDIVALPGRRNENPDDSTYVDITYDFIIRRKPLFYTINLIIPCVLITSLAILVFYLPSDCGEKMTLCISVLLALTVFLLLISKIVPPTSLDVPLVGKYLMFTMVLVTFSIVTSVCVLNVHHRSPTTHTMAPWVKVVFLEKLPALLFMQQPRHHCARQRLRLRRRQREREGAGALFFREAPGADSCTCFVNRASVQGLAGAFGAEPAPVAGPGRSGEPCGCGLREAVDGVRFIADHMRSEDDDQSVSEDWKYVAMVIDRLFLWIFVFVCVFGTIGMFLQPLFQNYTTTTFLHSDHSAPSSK
Description: (§1) Human embryonic kidney (HEK) cell lines stably expressing human (α4)2(β2)2β2/α4 (α4β2*) nAChRs, (α4)2(β2)2α5 nAChRs, (α4)2(β2)2β3 nAChRs, (α3)2(β4)2α3/β4 (α3β4*) nAChRs, (α3)2(β2)2α3/β2 (α3β2*) nAChRs, (α3)2(β4)2α5 nAChRs, or (α3)2(β2)2α5 nAChRs were maintained as described previously ([Wang et al., 2015]; [Kuryatov et al., 2005]; [Caligiuri et al., 2022]). The FLEXstation bench top scanning fluorometer from Molecular Devices was used to assay nAChR function in these cells, according to published protocols ([Wang et al., 2015]; [Kuryatov et al., 2005]). The membrane potential kit (Molecular Devices) was used according to the manufacturer’s protocols. Serial dilutions of SR9883 were manually added to the assay plate 15 min prior to recording. […] Compound dilutions were prepared in V-shaped 96-well plates (Fisher Scientific Co.) and added to cell culture wells at a rate of 20 μL s^−1 during recording. Cells were incubated at 29°C for 6–20 h prior to assays to upregulate nAChRs ([Wang et al., 2015]; [Kuryatov et al., 2005]). Data points were averaged from 3 to 4 responses from separate wells. Potency and efficacy were calculated using the Hill equation as described previously ([Wang et al., 2015]).
(§2) Concentration-response curves of SR9883 actions in nAChR-expressing HEK cells and oocytes were fitted to the Hill equation using a nonlinear least squares curve fit method and efficacy and potency values were calculated as previously described ([Wang et al., 2015]). Plasma and brain levels of SR9983 after oral administration were compared using a two-tailed paired t test. […] For the ICSS threshold experiment, percentages of baseline reward threshold scores were calculated by expressing the absolute threshold scores as a percentage of the scores obtained during baseline. The baseline values were the mean thresholds on the three sessions prior to drug injections. Response latency data were analyzed in the same manner as the threshold data. […] Effects of SR9883 on responding for food pellets in rats was analyzed by a two-tailed paired t test. […] Significant main or interaction effects in ANOVAs were followed by Bonferroni or Newman–Keuls post-hoc tests as appropriate. All statistical analyses were performed using GraphPad Prism software with α set to 0.05.

[2] = molecular target: T1, human (α4)2(β2)2α5 nAChRs (Homo sapiens, UniProt P17787+P30532+P43681); experiment: FLEXstation membrane potential assay in HEK cells stably expressing (α4)2(β2)2α5 nAChRs; assay type: cell-based; conditions: nicotine 0.001–50 μM, ±SEM
T1 construct: expressed in transfected cells
T1 sequence (P43681 29-627 limits assumed): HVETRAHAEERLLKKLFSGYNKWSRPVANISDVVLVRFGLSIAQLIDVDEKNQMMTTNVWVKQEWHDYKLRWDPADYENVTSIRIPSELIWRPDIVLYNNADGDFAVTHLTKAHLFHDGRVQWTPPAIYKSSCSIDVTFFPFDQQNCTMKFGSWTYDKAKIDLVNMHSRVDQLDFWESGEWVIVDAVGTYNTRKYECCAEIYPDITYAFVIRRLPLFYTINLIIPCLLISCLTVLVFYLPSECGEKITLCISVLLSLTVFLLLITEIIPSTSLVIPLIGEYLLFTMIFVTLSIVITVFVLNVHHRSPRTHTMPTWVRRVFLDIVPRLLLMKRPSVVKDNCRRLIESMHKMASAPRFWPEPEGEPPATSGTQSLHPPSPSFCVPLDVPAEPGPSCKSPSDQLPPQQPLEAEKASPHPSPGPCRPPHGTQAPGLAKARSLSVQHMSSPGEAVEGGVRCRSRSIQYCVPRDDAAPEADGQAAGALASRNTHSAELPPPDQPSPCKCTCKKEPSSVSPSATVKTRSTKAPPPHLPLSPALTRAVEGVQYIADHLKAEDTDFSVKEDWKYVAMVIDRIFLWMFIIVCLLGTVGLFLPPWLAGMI
T1 sequence (P17787 26-502): as the sequence (P17787 26-502) above
T1 sequence (P30532 23-468): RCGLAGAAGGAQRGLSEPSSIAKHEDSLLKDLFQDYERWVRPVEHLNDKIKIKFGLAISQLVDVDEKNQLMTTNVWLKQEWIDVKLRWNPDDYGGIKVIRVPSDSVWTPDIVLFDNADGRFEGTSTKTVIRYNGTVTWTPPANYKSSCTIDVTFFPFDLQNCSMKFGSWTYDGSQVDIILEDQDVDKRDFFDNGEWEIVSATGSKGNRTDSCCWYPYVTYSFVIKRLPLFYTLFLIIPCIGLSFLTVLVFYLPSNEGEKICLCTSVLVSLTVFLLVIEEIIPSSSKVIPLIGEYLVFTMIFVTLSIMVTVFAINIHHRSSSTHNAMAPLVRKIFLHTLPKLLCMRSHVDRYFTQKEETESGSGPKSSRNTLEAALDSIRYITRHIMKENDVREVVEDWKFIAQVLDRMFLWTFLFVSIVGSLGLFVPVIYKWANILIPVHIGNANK
Description: as §1, §2

Structure (SMILES): N#Cc1cccc(-c2nc(-c3cccnc3)no2)c1 [NS9283, 3-[3-(3-pyridyl)-1,2,4-oxadiazol-5-yl]benzonitrile]
- EC50 (α4β2* nAChRs): ~1000 nM
- Intravenous nicotine self-administration behavior (rats): decrease

Structure (SMILES): c1cnc2cc3c(cc2n1)[C@@H]1CNC[C@H]3C1 [Chantix, varenicline]
- People remaining abstinent after 1 year of a quit attempt (people): approximately 23%

Structure (SMILES): CC(NC(C)(C)C)C(=O)c1cccc(Cl)c1 (stereo not drawn) [Zyban, bupropion]
- People remaining abstinent after 1 year of a quit attempt (people): ~16%

Structure (SMILES): CN1CCC[C@H]1c1cccnc1 [nicotine, (−)-Nicotine hydrogen tartrate salt, reference compound]
- Efficacy ([1]; +SR9883 (10 μM)): 87.20 ± 1.68%
- nHill of nicotine ([1]; +SR9883 (10 μM)): 1.0749 ± 0.0928
- Efficacy ([1]; −SR9883): 96.89 ± 2.82%
- nHill of nicotine ([1]; −SR9883): 0.8145 ± 0.0740
- Efficacy ([2]; +SR9883 (10 μM)): 92.69 ± 2.19%
- nHill of nicotine ([2]; +SR9883 (10 μM)): 1.2934 ± 0.1439
- Efficacy ([2]; −SR9883): 100.49 ± 3.89%
- nHill of nicotine ([2]; −SR9883): 0.7395 ± 0.0767
